Measured values from ChEMBL document CHEMBL1201862, “PubChem BioAssay data set” (2004).
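48-hour exposure; five concentrations; linearly interpolated endpoints. Here, GI50 denotes the concentration required for 50% inhibition of growth.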 Calls of active or inactive are those of the source. Rule as the data show it: active = GI50 up to about 1.1 µM and inactive = higher.

Key:
Assay in all cases: NCI anticancer screen, dose series, 48 h
[1] = test system: SNB-19
[2] = test system: OVCAR-5
[3] = test system: UO-31
[4] = test system: KM-20L2
[5] = test system: NCI-H226
[6] = test system: SK-MEL-5
[7] = test system: UACC-257
[8] = test system: NCI-H23
[9] = test system: DMS-114
[10] = test system: A498
[11] = test system: OVCAR-8
[12] = test system: LXFL 529
[13] = test system: RXF 393
[14] = test system: Malme-3M
[15] = test system: HCC 2998
[16] = test system: SNB-75
[17] = test system: M14
[18] = test system: IGROV-1
[19] = test system: RPMI-8226
[20] = test system: ACHN
[21] = test system: DMS-273
[22] = test system: SF-295
[23] = test system: SF-268
[24] = test system: RXF 631
[25] = test system: TK-10
[26] = test system: NCI-H460
[27] = test system: 786-0
[28] = test system: UACC-62
[29] = test system: OVCAR-3
[30] = test system: SW-620
[31] = test system: M19-MEL
[32] = test system: SN12C
[33] = test system: A549
[34] = test system: K562
[35] = test system: LOX IMVI
[36] = test system: U-251
[37] = test system: KM12
[38] = test system: DLD-1
[39] = test system: HT-29
[40] = test system: HL-60
[41] = test system: SF-539
[42] = test system: NCI-H522
[43] = test system: HOP-92
[44] = test system: SK-OV-3
[45] = test system: CCRF-CEM
[46] = test system: HOP-18
[47] = test system: EKVX
[48] = test system: HOP-62
[49] = test system: HCT-116
[50] = test system: COLO 205
[51] = test system: OVCAR-4
[52] = test system: CAKI-1
[53] = test system: SNB-78
[54] = test system: SK-MEL-28
[55] = test system: HCT-15
[56] = test system: SK-MEL-2
[57] = test system: MOLT-4
[58] = test system: XF498
[59] = test system: BT-549
[60] = test system: PC-3
[61] = test system: Hs-578T
[62] = test system: MDA-N
[63] = test system: NCI/ADR-RES
[64] = test system: SR
[65] = test system: T47D
[66] = test system: MDA-MB-435
[67] = test system: MDA-MB-231
[68] = test system: MCF7
[69] = test system: DU-145

CC(=O)Nc1ccccc1[S+]([O-])c1ccccc1 (configuration not stated)
GI50 [1]: > 100000 nM (inactive)
GI50 [2]: 4210 nM (inactive)
GI50 [3]: > 100000 nM (inactive)
GI50 [4]: > 100000 nM (inactive)
GI50 [5]: > 100000 nM (inactive)
GI50 [6]: > 100000 nM (inactive)
GI50 [7]: > 100000 nM (inactive)
GI50 [8]: > 100000 nM (inactive)
GI50 [9]: > 100000 nM (inactive)
GI50 [10]: > 100000 nM (inactive)
GI50 [11]: > 100000 nM (inactive)
GI50 [12]: > 100000 nM (inactive)
GI50 [13]: > 100000 nM (inactive)
GI50 [14]: > 100000 nM (inactive)
GI50 [15]: > 100000 nM (inactive)
GI50 [16]: > 100000 nM (inactive)
GI50 [17]: > 100000 nM (inactive)
GI50 [18]: > 100000 nM (inactive)
GI50 [19]: > 100000 nM (inactive)
GI50 [20]: > 100000 nM (inactive)
GI50 [21]: > 100000 nM (inactive)
GI50 [22]: > 100000 nM (inactive)
GI50 [23]: > 100000 nM (inactive)
GI50 [24]: > 100000 nM (inactive)
GI50 [25]: > 100000 nM (inactive)
GI50 [26]: > 100000 nM (inactive)
GI50 [27]: > 100000 nM (inactive)
GI50 [28]: > 100000 nM (inactive)
GI50 [29]: > 100000 nM (inactive)
GI50 [30]: > 100000 nM (inactive)
GI50 [31]: > 100000 nM (inactive)
GI50 [32]: > 100000 nM (inactive)
GI50 [33]: > 100000 nM (inactive)
GI50 [34]: > 100000 nM (inactive)
GI50 [35]: > 100000 nM (inactive)
GI50 [36]: > 100000 nM (inactive)
GI50 [37]: > 100000 nM (inactive)
GI50 [38]: > 100000 nM (inactive)
GI50 [39]: > 100000 nM (inactive)
GI50 [40]: > 100000 nM (inactive)
GI50 [41]: > 100000 nM (inactive)
GI50 [42]: 71800 nM (inactive)
GI50 [43]: > 100000 nM (inactive)
GI50 [44]: 84500 nM (inactive)
GI50 [45]: > 100000 nM (inactive)
GI50 [46]: > 100000 nM (inactive)
GI50 [47]: > 100000 nM (inactive)
GI50 [48]: > 100000 nM (inactive)
GI50 [49]: > 100000 nM (inactive)
GI50 [50]: > 100000 nM (inactive)
GI50 [51]: > 100000 nM (inactive)
GI50 [52]: > 100000 nM (inactive)
GI50 [53]: > 100000 nM (inactive)
GI50 [54]: > 100000 nM (inactive)
GI50 [55]: > 100000 nM
GI50 [56]: > 100000 nM (inactive)
GI50 [57]: > 100000 nM (inactive)
GI50 [58]: > 100000 nM (inactive)

CC(=O)O[C@H]1C(=O)[C@@]2(C)C(C(OC(=O)c3ccccc3)[C@]3(O)C[C@H](OC(=O)C(OC(=O)CCCC(=O)NCCCN(C)C)C(NC(=O)c4ccccc4)c4ccccc4)C(C)=C1C3(C)C)C1(OC(C)=O)COC1C[C@@H]2O (some centres not stated)
GI50 [1]: 15.2 nM (active)
GI50 [59]: 10.1 nM (active)
GI50 [2]: < 13.9 nM (active)
GI50 [3]: 1020 nM (active)
GI50 [4]: < 10 nM (active)
GI50 [5]: 495 nM (active)
GI50 [6]: < 10 nM (active)
GI50 [60]: < 10 nM (active)
GI50 [7]: 14.3 nM (active)
GI50 [8]: < 10 nM (active)
GI50 [9]: < 10 nM (active)
GI50 [10]: 60.7 nM (active)
GI50 [61]: < 10 nM (active)
GI50 [11]: < 10 nM (active)
GI50 [12]: < 10 nM (active)
GI50 [13]: 17.1 nM (active)
GI50 [14]: < 10 nM (active)
GI50 [15]: < 10 nM (active)
GI50 [16]: < 10 nM (active)
GI50 [17]: < 10 nM (active)
GI50 [62]: < 10 nM (active)
GI50 [18]: 13.8 nM (active)
GI50 [19]: < 10 nM (active)
GI50 [63]: 5020 nM (inactive)
GI50 [64]: < 10 nM (active)
GI50 [20]: 652 nM (active)
GI50 [21]: < 10 nM (active)
GI50 [22]: 20 nM (active)
GI50 [23]: 10.9 nM (active)
GI50 [24]: 35.5 nM (active)
GI50 [25]: 42.5 nM (active)
GI50 [65]: 149 nM (active)
GI50 [66]: < 10 nM (active)
GI50 [67]: < 12.5 nM (active)
GI50 [26]: < 10 nM (active)
GI50 [27]: 13.4 nM (active)
GI50 [28]: < 10 nM (active)
GI50 [29]: < 10 nM (active)
GI50 [30]: < 10 nM (active)
GI50 [31]: < 10 nM (active)
GI50 [32]: < 12.2 nM (active)
GI50 [33]: < 10 nM (active)
GI50 [34]: < 10 nM (active)
GI50 [35]: < 10 nM (active)
GI50 [36]: < 10 nM (active)
GI50 [37]: < 10 nM (active)
GI50 [38]: 19.4 nM (active)
GI50 [39]: < 10 nM (active)
GI50 [40]: < 10 nM (active)
GI50 [41]: < 10 nM (active)
GI50 [42]: < 10 nM (active)
GI50 [43]: 2190 nM (inactive)
GI50 [44]: 14.1 nM (active)
GI50 [45]: < 10 nM (active)
GI50 [46]: 916 nM (active)
GI50 [47]: 262 nM (active)
GI50 [68]: < 10 nM (active)
GI50 [48]: 16 nM (active)
GI50 [49]: < 10 nM (active)
GI50 [69]: 10.5 nM (active)
GI50 [50]: < 10 nM (active)
GI50 [51]: 8710 nM (inactive)
GI50 [52]: 859 nM (active)
GI50 [53]: 2490 nM (inactive)
GI50 [54]: < 10 nM (active)
GI50 [55]: 406 nM
GI50 [56]: < 10 nM (active)
GI50 [57]: < 10 nM (active)
GI50 [58]: < 10 nM (active)
